The target in data set [1] is PRMT5 (Homo sapiens, UniProt O14744). To be noted: substrate E2-F-1; cited from earlier work.
Data set [2] has as its target T1, PRMT5/MEP50 enzyme complex (Homo sapiens, UniProt O14744).
T1 construct: purchased
The experiment in a line: in vitro biochemical assay: PRMT5/MEP50 enzyme complex with SAM and purified AR LBD (with or without ERG ETS domain). To be noted: AR LBD/PRMT5 and AR LBD/PRMT5/ETS reactions. As to the method: To test whether ERG is a substrate of PRMT5, we used 22Rv1 cells to express and immunoprecipitate ERG in the presence and absence of PRMT5. Using a recently generated antibody specific for symmetric dimethyl arginine modification, we verified ERG arginine methylation levels and only observed a faint band which was not altered following PRMT5 knockdown (data not shown). To confirm these findings, we performed in vitro biochemical assays in which we incubated increasing amounts of commercial PRMT5/MEP50 enzyme complex with the methyl donor S-Adenosyl-Methionine (SAM) and either the pointed (PNT) domain or ETS domain of ERG as possible substrates of PRMT5. As a measure of PRMT5 catalytic activity and usage of the methyl donor SAM for substrate methylation, we evaluated and quantified by mass spectrometry the amount of S-Adenosyl-Homocysteine (SAH) produced (data not shown). […] To investigate whether the ligand binding domain (LBD) of AR is a direct substrate of PRMT5, we performed a series of in vitro biochemical assays in which we incubated the PRMT5/MEP50 enzyme complex with the methyl donor S-Adenosyl-Methionine (SAM) and purified AR LBD. […]

The test system of data set [3] is PRMT5. The note with it: shRNAs disclosed in U.S. Patent Application No. 62/049,004; cited from earlier work.

T1 sequence (O14744 whole entry): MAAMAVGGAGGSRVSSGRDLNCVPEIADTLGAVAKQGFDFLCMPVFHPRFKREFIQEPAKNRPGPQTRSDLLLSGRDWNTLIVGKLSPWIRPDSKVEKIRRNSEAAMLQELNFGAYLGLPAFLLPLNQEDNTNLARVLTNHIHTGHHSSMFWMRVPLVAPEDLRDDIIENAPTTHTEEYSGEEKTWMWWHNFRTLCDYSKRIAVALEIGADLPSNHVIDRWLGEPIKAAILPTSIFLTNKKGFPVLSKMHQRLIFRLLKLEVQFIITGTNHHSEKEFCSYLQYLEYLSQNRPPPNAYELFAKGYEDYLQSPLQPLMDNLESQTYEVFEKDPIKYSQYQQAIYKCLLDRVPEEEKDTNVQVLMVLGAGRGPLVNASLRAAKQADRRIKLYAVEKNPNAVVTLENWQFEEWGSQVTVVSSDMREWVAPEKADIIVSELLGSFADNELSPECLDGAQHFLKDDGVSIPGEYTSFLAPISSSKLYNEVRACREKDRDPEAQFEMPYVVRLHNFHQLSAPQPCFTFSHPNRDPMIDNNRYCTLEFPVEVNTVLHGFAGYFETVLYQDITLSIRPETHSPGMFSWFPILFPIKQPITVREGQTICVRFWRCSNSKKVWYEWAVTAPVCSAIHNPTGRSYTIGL
T1 sequence (Q9BQA1 whole entry partner): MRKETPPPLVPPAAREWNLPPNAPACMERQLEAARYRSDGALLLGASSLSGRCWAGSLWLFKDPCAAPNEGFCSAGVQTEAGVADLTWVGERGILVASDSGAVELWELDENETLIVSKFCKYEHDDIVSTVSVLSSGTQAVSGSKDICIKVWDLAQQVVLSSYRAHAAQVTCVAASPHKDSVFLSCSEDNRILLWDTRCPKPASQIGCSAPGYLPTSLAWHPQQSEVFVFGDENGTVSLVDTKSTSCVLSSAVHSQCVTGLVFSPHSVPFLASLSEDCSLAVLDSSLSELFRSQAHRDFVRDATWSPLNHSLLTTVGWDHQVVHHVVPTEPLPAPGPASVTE
Sequence of PRMT5 (Homo sapiens, UniProt O14744) (O14744 whole entry): as the sequence (O14744 whole entry) above
Sequence of PRMT5 (Homo sapiens, UniProt O14744) (Q9BQA1 whole entry partner): as the sequence (Q9BQA1 whole entry partner) above

Regarding `Nc1ncnc2c1ncn2[C@@H]1O[C@H](C[C@@H](N)CC[C@H](N)C(=O)O)C(O)C1O` (stereo in doubt) [Sinefungin, 5′-Deoxy-5′-(1,4-diamino-4-carboxybutyl)adenosine], the “inhibition of PRMT5 activity” value on PRMT5 [1] is “inhibits PRMT5 activity”. Regarding `O=C(Nc1ccc2c(O)cc(S(=O)(=O)O)cc2c1)Nc1ccc2c(O)cc(S(=O)(=O)O)cc2c1` [AMI-1], the AR mono-methylation levels result in data set [2] (arginine mono-methyl antibody) is on record as “completely blocked”. The SAH production entry in data set [2] (measured by mass spectrometry) is listed as “completely blocked”. As for “sh4738: PRMT5 shRNA, target sequence GCCATCCCAACAGAGATCCTA (SEQ ID NO: 8) (the letters are possibly those of the target site)”, the “effectiveness of shRNA to PRMT5” value in the data set with PRMT5 [3] is on record as “also effective”.

“sh4736: PRMT5 shRNA, target sequence GCGGATAAAGCTGTATGCTGT (SEQ ID NO: 11) (the letters are possibly those of the target site)”: the “effectiveness of shRNA to PRMT5” value in the data set on PRMT5 [3] is recorded as “most effective”. As to “sh4737: PRMT5 shRNA, target sequence GCCAAGTGACCGTAGTCTCAT (SEQ ID NO: 15)”, the “effectiveness of shRNA to PRMT5” value with PRMT5 [3] is reported as “most effective”.
